Reference: PubChem BioAssay (NCI)
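Interpolation was linear, between the two tested concentrations surrounding the appropriate level; five concentrations were tested over 48 hours in 96-well plates. TGI: total growth inhibition.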

Key:
Assay in all cases: DTP human tumour cell line panel, 48 h
A549 NSCLC = test system: A549 NSCLC
DU-145 prostate = test system: DU-145 prostate
HL-60(TB) leukemia = test system: HL-60(TB) leukemia
HOP-62 NSCLC = test system: HOP-62 NSCLC
HOP-92 NSCLC = test system: HOP-92 NSCLC
KM12 colon = test system: KM12 colon
LOX IMVI melanoma = test system: LOX IMVI melanoma
MALME-3M melanoma = test system: MALME-3M melanoma
NCI-H460 lung = test system: NCI-H460 lung
OVCAR-4 ovarian = test system: OVCAR-4 ovarian
OVCAR-5 ovarian = test system: OVCAR-5 ovarian
OVCAR-8 ovarian = test system: OVCAR-8 ovarian
SF-268 CNS = test system: SF-268 CNS
SF-295 CNS = test system: SF-295 CNS
SK-MEL-2 melanoma = test system: SK-MEL-2 melanoma
SR leukemia = test system: SR leukemia
SW-620 colon = test system: SW-620 colon
UACC-257 melanoma = test system: UACC-257 melanoma
HCC-2998 colon = test system: HCC-2998 colon
SK-MEL-28 melanoma = test system: SK-MEL-28 melanoma

SMILES	TGI (A549 NSCLC) [µM]	TGI (DU-145 prostate) [µM]	TGI (HL-60(TB) leukemia) [µM]	TGI (HOP-62 NSCLC) [µM]	TGI (HOP-92 NSCLC) [µM]	TGI (KM12 colon) [µM]	TGI (LOX IMVI melanoma) [µM]	TGI (MALME-3M melanoma) [µM]	TGI (NCI-H460 lung) [µM]	TGI (OVCAR-4 ovarian) [µM]	TGI (OVCAR-5 ovarian) [µM]	TGI (OVCAR-8 ovarian) [µM]	TGI (SF-268 CNS) [µM]	TGI (SF-295 CNS) [µM]	TGI (SK-MEL-2 melanoma) [µM]	TGI (SR leukemia) [µM]	TGI (SW-620 colon) [µM]	TGI (UACC-257 melanoma) [µM]	TGI (HCC-2998 colon) [µM]	TGI (SK-MEL-28 melanoma) [µM]
NNC(=O)CC(=O)Nc1ccc(C(=O)O)cc1	> 100	> 100	> 100	> 100	> 100	> 100	> 100	> 100	> 100	> 100	> 100	> 100	> 100	> 100	> 100	> 100	> 100	> 100	–	–
CC1=C(C(=O)OCCc2ccc([N+](=O)[O-])cc2)C(c2ccccc2C(F)(F)F)C(C(=O)OC(C)C)=C(C)N1 (configuration not stated)	> 100	> 100	–	> 100	–	31	> 100	28.5	> 100	> 100	> 100	> 100	> 100	> 100	7.16	> 100	> 100	> 100	> 100	> 100
COc1ccc(Cc2cc(OC)c(OC)c(OC)c2)cc1O	> 100	> 100	> 26.6	> 49.6	–	–	> 100	> 100	> 100	> 100	> 100	> 100	> 100	> 100	> 100	> 100	> 100	> 100	> 65.9	> 100
Nc1ccc(-c2nc3cc(F)ccc3s2)cc1Br	> 100	> 100	> 100	> 100	> 100	> 100	> 100	> 100	> 46	> 100	> 100	> 100	> 100	> 100	> 100	–	> 100	> 100	0.0345	> 100
CC(C)N(CCCNc1c2ccccc2nc2cccc([N+](=O)[O-])c12)C(C)C	0.0473	< 0.01	–	–	< 0.01	–	0.0637	–	< 0.0445	0.103	–	< 0.0467	–	< 0.0457	0.24	11.8	< 0.0397	< 0.0508	< 0.01	< 0.01
COc1cc(S(=O)(=O)N/N=C/C=C/c2ccccc2)c(OC)cc1NC(C)=O	> 100	> 100	> 100	> 100	> 100	> 100	> 100	> 100	–	> 100	> 100	> 100	> 100	> 100	> 100	> 100	> 100	> 100	–	> 100
C[C@]1(O)CC(=O)c2c(c(-c3ccc4cc5c(c(O)c4c3O)C(=O)C[C@@](C)(O)C5)c3cccc(O)c3c2O)C1	23.8	29	–	10.9	8.72	11.7	26.6	27.1	11.3	21.1	25.3	18.5	17.9	18.6	6.22	> 100	47	30.8	16.4	23.2
Nc1sccc1S(=O)(=O)c1ccsc1N	> 100	> 100	–	> 100	> 100	> 100	> 100	> 100	> 100	> 100	> 100	> 100	> 100	> 100	> 100	–	> 100	> 100	> 100	> 100
Cn1c(=O)c2[nH]c(/N=N\n3ccc4ccccc43)nc2n(C)c1=O	> 100	> 100	> 100	> 100	–	> 100	> 100	> 100	> 100	> 100	> 100	> 100	> 100	> 100	–	> 100	> 100	> 100	> 100	> 100
CCOC(=O)c1c(NS(=O)(=O)c2ccc(Br)cc2)sc2c1CCCC2	26.5	> 58	> 100	14.1	–	18.2	27.3	27.9	13.9	> 100	18.3	15.3	10.9	8.39	13.5	74.7	30.6	47.5	32.6	32.6
CCC(C)[C@H]1C(=O)N=C(N)N1C(=O)OCc1ccccc1 (some centres not stated)	–	> 100	> 100	> 100	–	> 100	> 100	> 100	> 100	> 100	> 100	> 100	> 100	> 100	> 100	> 100	> 100	> 100	> 100	> 100
CC(C)=C1C(=O)C[C@]2(C)C/C=C(\C)CC/C=C(\C)CC[C@@H]12	> 50	> 50	–	18.5	19.3	16.1	–	–	–	45.6	32.1	16	18	31.3	15.8	28.3	17.3	25.4	14.9	15.2
O=C(O)C(F)(OC(F)(F)C(F)(F)C(F)(F)F)C(F)(F)F (configuration not stated)	> 100	> 100	> 100	> 100	> 100	> 100	> 100	> 100	> 100	> 100	> 100	> 100	> 100	> 100	> 100	–	> 100	> 100	> 100	> 100
